Literature values in patent EP0408384A1, “N,N'-dicarboxymethyl, N,N'-dicarbamoylmethyl diaminoalkane derivatives and their use in pharmaceutical compositions” (BRITISH TECHNOLOGY GROUP LIMITED, priority 1989, dated 1991).

Test system: daunorubicin toxicity
Conditions: acute daunorubicin toxicity; literature report

Structure (SMILES)	protection against the lethal effects of daunorubicin
O=C1CN(CCN2CC(=O)N(CN3CCOCC3)C(=O)C2)CC(=O)N1CN1CCOCC1 [bimolane]	give protection
CC(CN1CC(=O)NC(=O)C1)N1CC(=O)NC(=O)C1 (centres unmarked) [compound having R = CH₃ and R′ = R˝ = H]	give protection
